In this test the test system is L6 rat myocyte cell line. The experiment in a line: [3H]-deoxyglucose uptake in the L6 rat myocyte cell line with or without insulin (Example 5, FIG. 5). The test is classed as cell-based. The note with it: insulin at 100 nM alone, p<0.001. The text has this:
The L6 line (a line from the skeletal muscle of Rattus norvegicus provided by ATCC-LCC Promochem) was used. Glucose uptake in the presence of insulin with or without SAT2 was quantified using [^3H]-deoxyglucose. The L6 cell line is cultivated in DMEM (4.5 g/l glucose) supplemented with 10% fetal calf serum (FCS). For the glucose uptake experiments, the cells are inoculated in 12-well plates at a density of 10^4 cells/well. After three days of culture, the cells are differentiated in DMEM with 2% FCS for one week. The day of the experiment, the cells are deprived for 4 hours in DMEM without FCS and containing 0.1% BSA, and then they are incubated for 1 hour in a Krebs-Ringer buffer containing 1 g/l glucose and containing […] insulin with or without SAT2 at a concentration of 50 μg/ml or 100 μg/ml. The cells are then washed in Krebs-Ringer and then incubated in the presence of 0.5 μCi [^3H]-deoxyglucose in 1 ml Krebs-Ringer per well. Glucose uptake by the L6 cells is stopped by three washings in cold PBS and the cells are then lysed in 1 ml of a 0.1 N NaOH solution. Concentration in total protein is estimated by the Bradford method and radioactivity is measured using a β counter. The final results are expressed in cpm/mg/min. […] The effects on glucose uptake are measured in the presence of [^3H]-deoxyglucose for 5 minutes. […]

For Insulin, the “increase in glucose capture” value is 30.4%.

These data come from patent publication US8404746B2, “Anti-diabetes composition containing chicoric acid and/or one of the metabolites thereof” (Centre National de la Recherche Scientifique (CNRS), priority 2006, dated 2013).
